Source: patent US10538520B2, “Benzamide and nicotinamide compounds and methods of using same” (OncoTartis Inc., priority 2013, dated 2020)

How the values were obtained:
MV4-11 = assay: Cytotoxicity towards MV4-11 cell line; type: cell-based; settings: Homo sapiens
Procedure: (§1) In various embodiments, the compounds of the disclosure are those in which show IC50 values in cytotoxicity experiments towards cells lines MV4-11 and U937 of >20 μM, 10-20 μM, 5-10 μM, 1-5 μM, or <1 μM.
(§2) The IC50 is divided into 5 categories: A<1 μM, B 1-5 μM, C 5-10 μM, D 10-20 μM, and E>20 μM.

U-937 = assay: Cytotoxicity towards U-937 cell line; type: cell-based; settings: Homo sapiens
Procedure: as §1, §2

SMILES	IC50 (MV4-11) [µM]	IC50 (U-937) [nM]
O=C(NCCCn1ccnc1)c1ccc(CN2CCc3ccccc3C2)cc1 [TT-01902]	10 to 20	5000 to 10000
O=C(NCCCn1ccnc1)c1ccc(N2CCCC2)c(C#Cc2ccccc2)c1 [TT-02683]	< 1	< 1000
O=C(NCc1cccnc1)c1ccc(-n2cccn2)c(C#Cc2ccccc2)c1 [TT-02684]	< 1	< 1000
O=C(NCCc1c[nH]cn1)c1ccc(-n2cccn2)c(C#Cc2ccccc2)c1 [TT-02686]	5 to 10	10000 to 20000
Cc1nccn1CCCNC(=O)c1ccc(-n2cccn2)c(C#Cc2ccccc2)c1 [TT-02689]	1 to 5	1000 to 5000
O=C(Nc1ccc(Cn2ccnc2)cc1)c1ccc(-n2cccn2)c(C#Cc2ccccc2)c1 [TT-02690]	5 to 10	10000 to 20000
Cc1cc(SCCNC(=O)c2ccc(-n3cccn3)c(C#Cc3ccccc3)c2)[nH]n1 [TT-02691]	10 to 20	5000 to 10000
Cc1ccn(CCNC(=O)c2ccc(-n3cccn3)c(C#Cc3ccccc3)c2)n1 [TT-02692]	> 20	< 1000
O=C(NCCn1ccnc1)c1ccc(-n2cccn2)c(C#Cc2ccccc2)c1 [TT-02694]	> 20	< 1000
O=C(NCCCn1ccnc1)c1ccc(-n2cccn2)c(C#Cc2ccccn2)c1 [TT-02695]	< 1	< 1000
O=C(NCCc1nccs1)c1ccc(-n2cccn2)c(C#Cc2ccccc2)c1 [TT-02707]	> 20	< 1000
O=C(NCCCn1cccn1)c1ccc(-n2cccn2)c(C#Cc2ccccc2)c1 [TT-02709]	> 20	< 1000
Cn1ccnc1CNC(=O)c1ccc(-n2cccn2)c(C#Cc2ccccc2)c1 [TT-02713]	> 20	< 1000
O=C(NCCCc1cn[nH]c1)c1ccc(-n2cccn2)c(C#Cc2ccccc2)c1 [TT-02715]	< 1	< 1000
O=C(NCCCCn1ccnc1)c1ccc(-n2cccn2)c(C#Cc2ccccc2)c1 [TT-02717]	< 1	< 1000
Cn1cnc(CNC(=O)c2ccc(-n3cccn3)c(C#Cc3ccccc3)c2)c1 [TT-02721]	> 20	> 20000
O=C(NCCCn1ccnc1)c1ccc(-n2cnnc2)c(C#Cc2ccccc2)c1 [TT-02731]	< 1	< 1000
Cc1nncn1-c1ccc(C(=O)NCCCn2ccnc2)cc1C#Cc1ccccc1 [TT-02732]	< 1	< 1000

SMILES	IC50 (MV4-11) [µM]	IC50 (U-937) [nM]
O=C(NCCCn1ccnc1)c1ccc(Oc2ccccc2)c(C#Cc2ccccc2)c1 [TT-02741]	< 1	< 1000
Cc1ccc(C#Cc2cc(C(=O)NCCCn3ccnc3)ccc2-n2cccn2)cc1 [TT-02745]	< 1	< 1000
O=C(NCCCn1ccnc1)c1ccc(-n2cccn2)c(C#Cc2ccc(F)cc2)c1 [TT-02746]	< 1	< 1000
O=C(NCCCn1ccnc1)c1ccc(-n2cccn2)c(C#Cc2ccc(C(F)(F)F)cc2)c1 [TT-02747]	10 to 20	5000 to 10000
O=C(NCCCn1ccnc1)c1ccc(-n2cccn2)c(C#Cc2cccc(Cl)c2)c1 [TT-02749]	< 1	< 1000
O=C(NCCCn1ccnc1)c1ccc(-n2cccn2)c(C#Cc2ccccc2Cl)c1 [TT-02750]	< 1	< 1000
O=C(NCCCn1ccnc1)c1ccc(-n2cccn2)c(C#Cc2ccccc2C(F)(F)F)c1 [TT-02751]	< 1	< 1000
C#Cc1cc(C(=O)NCCCn2ccnc2)ccc1-n1cccn1 [TT-02752]	5 to 10	10000 to 20000
O=C(NCCCn1ccnc1)c1cc(C#Cc2ccccc2)c2nccn2c1 [TT-02760]	10 to 20	10000 to 20000
Cn1ccnc1C(C)(O)CC1CCCN1C(=O)c1ccc(-n2cccn2)c(C#Cc2ccccc2)c1 (stereo not drawn) [TT-02793]	> 20	5000 to 10000
O=C(c1ccc(-n2cccn2)c(C#Cc2ccccc2)c1)N1CCCC(Cn2ccnc2)C1 (stereo not drawn) [TT-02796]	10 to 20	10000 to 20000
Cc1nccn1CCN(C)C(=O)c1ccc(-n2cccn2)c(C#Cc2ccccc2)c1 [TT-02797]	> 20	> 20000
Cc1nonc1CN(C)C(=O)c1ccc(-n2cccn2)c(C#Cc2ccccc2)c1 [TT-02800]	10 to 20	1000 to 5000
Cc1cc(CN(C)C(=O)c2ccc(-n3cccn3)c(C#Cc3ccccc3)c2)no1 [TT-02801]	10 to 20	1000 to 5000
Cc1noc(CNC(=O)c2ccc(-n3cccn3)c(C#Cc3ccccc3)c2)n1 [TT-02802]	> 20	1000 to 5000
Cn1cnnc1C1CCN(C(=O)c2ccc(-n3cccn3)c(C#Cc3ccccc3)c2)C1 (stereo not drawn) [TT-02803]	> 20	< 1000
O=C(NCCn1cncn1)c1ccc(-n2cccn2)c(C#Cc2ccccc2)c1 [TT-02804]	> 20	< 1000
Cc1nc(C)n(CCNC(=O)c2ccc(-n3cccn3)c(C#Cc3ccccc3)c2)n1 [TT-02805]	1 to 5	< 1000
